Molecules are shown by their SMILES.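 Values below derive from 48-hour exposures of cells grown in 96-well plates, with endpoints linearly interpolated between the two concentrations bracketing the appropriate inhibition level. Abbreviation: GI50, concentration required for 50% inhibition of growth. TGI: total growth inhibition.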

Six compounds from PubChem BioAssay (NCI) can be followed below.

Test systems include DLD-1 colon; DMS 114 small cell lung; DMS 273 small cell lung; HOP-18 NSCLC; KM20L2 colon; P388 leukemia; P388/ADR leukemia; SN12K1 renal; SNB-78 CNS; XF 498 CNS; LXFL 529 NSCLC.
Experiment in all cases: NCI tumour cell line growth inhibition, 48 h

In the case of `CCCCCCc1cn([C@H]2C[C@H](O)[C@@H](CO)O2)c(=O)[nH]c1=O`, the TGI in the experiment on DLD-1 colon, with DMS 114 small cell lung, in the experiment with DMS 273 small cell lung, with HOP-18 NSCLC, in the experiment with KM20L2 colon and with P388 leukemia was more than 100 µM each time. In addition, the TGI with P388/ADR leukemia, in the experiment on SN12K1 renal, with SNB-78 CNS and in the experiment with XF 498 CNS was more than 100 µM in each case.
`C=C1CC(OC)(C(O)C(=O)N[C@H]2OCO[C@H]3C2O[C@H](C[C@H](O)COC)C(C)(C)C3OC)O[C@H](C)[C@@H]1C` (some centres not stated): the TGI with DMS 114 small cell lung, in the experiment on HOP-18 NSCLC, in the experiment with KM20L2 colon, in the experiment with P388 leukemia, with SN12K1 renal and with SNB-78 CNS was more than 0.00772 µM each time. In addition, the TGI in the experiment with XF 498 CNS was more than 0.00772 µM.
As to `Nc1ccc(-c2nc3ccccc3s2)cc1`, the TGI with DLD-1 colon is 77.3 µM; in the experiment on DMS 114 small cell lung it was 39.1 µM; in the experiment on HOP-18 NSCLC, more than 100 µM; in the experiment on KM20L2 colon it was more than 100 µM; in the experiment on LXFL 529 NSCLC, 33.4 µM; in the experiment on SNB-78 CNS, 98.2 µM.
Consider `CC(=O)[C@H]1CCC2[C@@H]3CC=C4C(O)C(OS(=O)(=O)O)CC[C@]4(C)C3CC[C@@]21C` (some centres not stated), for which the TGI in the experiment on DLD-1 colon, in the experiment with DMS 114 small cell lung, in the experiment on DMS 273 small cell lung, in the experiment with HOP-18 NSCLC, in the experiment with KM20L2 colon and in the experiment on P388 leukemia was more than 100 µM in each case. In addition, the TGI in the experiment with P388/ADR leukemia, with SN12K1 renal and in the experiment on SNB-78 CNS was more than 100 µM each time.
`NC1CCCCC1N.O=S(=O)([O-])CCCN1CCN(CCO)CC1.O=S(=O)([O-])CCCN1CCN(CCO)CC1.[Pt+4]`: the GI50 was 8.44 µM in the experiment on DLD-1 colon; 1240 nM in the experiment on DMS 273 small cell lung; 21.6 µM in the experiment with HOP-18 NSCLC; 6.59 µM with KM20L2 colon; 129 nM with P388 leukemia; 2560 nM in the experiment with P388/ADR leukemia. For the same compound, the GI50 is 3.29 µM in the experiment on SN12K1 renal, 15.8 µM with SNB-78 CNS and 1250 nM with XF 498 CNS. Moreover, the TGI was more than 100 µM in the experiment with DLD-1 colon; 19.9 µM in the experiment on DMS 273 small cell lung; more than 100 µM in the experiment on HOP-18 NSCLC; more than 100 µM in the experiment on KM20L2 colon; more than 32 µM in the experiment with P388 leukemia; more than 47.7 µM in the experiment with P388/ADR leukemia. Moreover, the TGI in the experiment on SN12K1 renal is more than 100 µM; with SNB-78 CNS, more than 86.4 µM; with XF 498 CNS, 24.6 µM.
For `CC(=O)Nc1ccc(/C=C(\NC(=O)c2ccccc2)C(=O)NNS(=O)(=O)c2ccc(C)cc2)cc1`, the TGI with DLD-1 colon was more than 100 µM; with DMS 273 small cell lung it was 34.8 µM; with HOP-18 NSCLC it was more than 100 µM; with KM20L2 colon, more than 100 µM; in the experiment on LXFL 529 NSCLC, more than 100 µM; in the experiment on SNB-78 CNS, more than 100 µM. Also, the TGI in the experiment on XF 498 CNS is more than 100 µM.
